The target of this test is 5-HT1A receptor (Bos taurus). Put plainly: In vitro inhibition of [3H]5-HT (2 nM) binding to 5-hydroxytryptamine 1A receptor from bovine hippocampus.

One may read the IC50 as the point on the concentration scale where inhibition reaches its midpoint. Lower therefore signals inhibition by little substance.

Each structure is given as a SMILES string.

As for `[N-]=[N+]=Nc1ccc(CCN2CCN(c3cccc(C(F)(F)F)c3)CC2)cc1I`, the IC50 was 0.035 µM. This counts as double-digit nanomolar.
